According to ChEMBL document CHEMBL3588790, “Identification of p-hydroxybenzyl alcohol, tyrosol, phloretin and its derivate phloridzin as tyrosinase substrates” (Bioorg Med Chem, 2015):
Activity calls are given as the source filed them. The rule behind the calls is not given here.

What was measured:
[1] = molecular target: T1, Tyrosinase (Agaricus bisporus) (UniProt O42713); test: Activity at mushroom tyrosinase assessed as decrease in absorbance using DOMA as substrate by oxygen consumption assay
T1 sequence (whole entry): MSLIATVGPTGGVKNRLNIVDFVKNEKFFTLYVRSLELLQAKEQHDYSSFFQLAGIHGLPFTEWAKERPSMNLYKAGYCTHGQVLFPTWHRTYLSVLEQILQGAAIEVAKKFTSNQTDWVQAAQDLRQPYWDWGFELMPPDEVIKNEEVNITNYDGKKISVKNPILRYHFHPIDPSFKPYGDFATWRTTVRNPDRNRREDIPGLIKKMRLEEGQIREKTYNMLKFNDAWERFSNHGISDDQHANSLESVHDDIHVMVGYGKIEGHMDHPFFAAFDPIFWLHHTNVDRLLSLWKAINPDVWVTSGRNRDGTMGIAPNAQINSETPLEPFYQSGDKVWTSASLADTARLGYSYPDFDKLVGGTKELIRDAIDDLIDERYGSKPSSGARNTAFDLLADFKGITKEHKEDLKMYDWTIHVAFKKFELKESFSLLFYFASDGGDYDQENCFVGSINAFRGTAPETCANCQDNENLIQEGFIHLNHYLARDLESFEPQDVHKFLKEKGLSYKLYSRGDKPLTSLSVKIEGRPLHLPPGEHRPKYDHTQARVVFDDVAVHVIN

[2] = molecular target: T1, Tyrosinase (Agaricus bisporus); test: Activity at mushroom tyrosinase by spectrophotometric assay in presence of hydrogen peroxide
[3] = molecular target: T1, Tyrosinase (Agaricus bisporus); test: Inhibition of monophenolase activity of mushroom tyrosinase using L-tyrosine as substrate at 0.05 mM by spectrophotometric assay
[4] = molecular target: T1, Tyrosinase (Agaricus bisporus); test: Inhibition of monophenolase activity of mushroom tyrosinase using L-tyrosine as substrate at 0.1 mM by spectrophotometric assay
[5] = molecular target: T1, Tyrosinase (Agaricus bisporus); test: Inhibition of diphenolase activity of mushroom tyrosinase using L-dopa as substrate at 0.05 mM by spectrophotometric assay
[6] = molecular target: T1, Tyrosinase (Agaricus bisporus); test: Inhibition of diphenolase activity of mushroom tyrosinase using L-dopa as substrate at 0.1 mM by spectrophotometric assay
[7] = molecular target: T1, Tyrosinase (Agaricus bisporus); test: Activity at mushroom tyrosinase assessed as decrease in absorbance using L-tyrosine as substrate by oxygen consumption assay
[8] = molecular target: T1, Tyrosinase (Agaricus bisporus); test: Activity at mushroom tyrosinase assessed as decrease in absorbance using L-dopa as substrate by oxygen consumption assay
[9] = molecular target: T1, Tyrosinase (Agaricus bisporus); details: 0.15 mM
Description: Inhibition of monophenolase activity of mushroom tyrosinase using L-tyrosine as substrate at 0.15 mM by spectrophotometric assay

[10] = molecular target: T1, Tyrosinase (Agaricus bisporus); details: 0.15 mM; remark: listed apart in the source
Description: Inhibition of diphenolase activity of mushroom tyrosinase using L-dopa as substrate at 0.15 mM by spectrophotometric assay

[11] = molecular target: T1, Tyrosinase (Agaricus bisporus); test: Inhibition of monophenolase activity of mushroom tyrosinase using L-tyrosine as substrate at 3 mM by spectrophotometric assay
[12] = molecular target: T1, Tyrosinase (Agaricus bisporus); test: Inhibition of monophenolase activity of mushroom tyrosinase using L-tyrosine as substrate at 6 mM by spectrophotometric assay
[13] = molecular target: T1, Tyrosinase (Agaricus bisporus); test: Inhibition of monophenolase activity of mushroom tyrosinase using L-tyrosine as substrate at 9 mM by spectrophotometric assay
[14] = molecular target: T1, Tyrosinase (Agaricus bisporus); test: Inhibition of diphenolase activity of mushroom tyrosinase using L-dopa as substrate at 3 mM by spectrophotometric assay
[15] = molecular target: T1, Tyrosinase (Agaricus bisporus); test: Inhibition of diphenolase activity of mushroom tyrosinase using L-dopa as substrate at 6 mM by spectrophotometric assay
[16] = molecular target: T1, Tyrosinase (Agaricus bisporus); test: Inhibition of diphenolase activity of mushroom tyrosinase using L-dopa as substrate at 9 mM by spectrophotometric assay
[17] = molecular target: T1, Tyrosinase (Agaricus bisporus); test: Inhibition of diphenolase activity of mushroom tyrosinase using L-dopa as substrate at 0.5 mM by spectrophotometric assay
[18] = molecular target: T1, Tyrosinase (Agaricus bisporus); test: Inhibition of diphenolase activity of mushroom tyrosinase using L-dopa as substrate at 1 mM by spectrophotometric assay
[19] = molecular target: T1, Tyrosinase (Agaricus bisporus); test: Inhibition of diphenolase activity of mushroom tyrosinase using L-dopa as substrate at 1.5 mM by spectrophotometric assay
[20] = molecular target: T1, Tyrosinase (Agaricus bisporus); test: Inhibition of monophenolase activity of mushroom tyrosinase using L-tyrosine as substrate at 0.2 mM by spectrophotometric assay
[21] = molecular target: T1, Tyrosinase (Agaricus bisporus); test: Inhibition of diphenolase activity of mushroom tyrosinase using L-dopa as substrate at 0.2 mM by spectrophotometric assay
[22] = molecular target: T1, Tyrosinase (Agaricus bisporus); test: Activity at mushroom tyrosinase assessed as decrease in absorbance at 475 nm using L-dopa as substrate by spectrophotometric assay in presence of sodium periodate

Structure (SMILES) | Activity [1] | Activity [2] | inhibition [3] | inhibition [4] | inhibition [5] | inhibition [6] | Activity [7] | Activity [8] | inhibition [17] | inhibition [18] | inhibition [19] | further results
O=C(CCc1ccc(O)cc1)c1c(O)cc(O)cc1O[C@@H]1O[C@H](CO)[C@@H](O)[C@H](O)[C@H]1O | Active | Active | 9% | 34% | 31.4% | 45.3% | Active | Active |  |  |  | inhibition [9]: 47.7%; inhibition [10]: 52.7%
O=C(O)Cc1ccccc1 |  |  |  |  |  |  |  |  |  |  |  | inhibition [11]: 19.7%; inhibition [12]: 39.4%; inhibition [13]: 55.4%; inhibition [14]: 18.2%; inhibition [15]: 41.6%; inhibition [16]: 58.1%

Now from value to molecule, other results behind:

Activity [1] | Activity [2] | inhibition [3] | inhibition [4] | inhibition [5] | inhibition [6] | Activity [7] | Activity [8] | inhibition [17] | inhibition [18] | inhibition [19] | Structure (SMILES) | further results
Active | Active |  |  |  |  | Active | Active | 14.3% | 18.7% | 18.3% | OCCc1ccc(O)cc1 | 
Active | Active |  |  |  |  | Active | Active | 15.2% | 28.4% | 38.9% | OCc1ccc(O)cc1 | 
 | Active | 4.2% | 17.9% | 28.3% | 46.2% |  |  |  |  |  | O=C(CCc1ccc(O)cc1)c1c(O)cc(O)cc1O | inhibition [20]: 48.5%; inhibition [21]: 62.6%; Activity [22]: Active
